Source: US11629171B2, “Beta-hairpin peptidomimetics” (POLYPHOR AG, priority 2017, dated 2023)
In brackets after ≈: the same amount, converted by molar mass. Where a SMILES comes first, the peptide text is derived from it. Bridges are numbered along the chain shown (N, C = ends). Roman numbers before positions name the chains, in order. [ ]: non-standard residue; d: D form. Thr(ol) = C[C@@H](O)[C@H](N)CO; Tle = CC(C)(C)[C@H](N)C(=O)O; d(hSer) = N[C@H](CCO)C(=O)O; Hiv = CC(C)[C@H](O)C(=O)O; dDab = NCC[C@@H](N)C(=O)O; hSer = N[C@@H](CCO)C(=O)O; Orn = NCCC[C@H](N)C(=O)O; Dab = NCC[C@H](N)C(=O)O; Nva = CCC[C@H](N)C(=O)O; Dap = NC[C@H](N)C(=O)O

Legend:
Format in all cases: cell-based
[1] = test system: human red blood cells (hRBC); experiment: Hemolysis; details: red cells of human, 1 h, 200
Outline: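 Washed fresh hRBC (20% v/v) were incubated with peptides at 200 μg/mL for 1 h at 37° C with shaking at 300 rpm. Supernatant OD540 was read after centrifugation and dilution, blank-corrected, and expressed as percent of the 2% Triton X-100 (100% lysis) control; PBS with 10% water gave 0%.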

Escherichia coli 926415 = details: 926415
Outline: (§1)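 CLSI broth microdilution: inoculum ~10^6 CFU/mL in cation-adjusted Mueller-Hinton II broth, with peptide in serial two-fold dilutions plus Polysorbate 80 (0.002% final). MIC (μg/mL) is the lowest concentration without visible growth after 18-20 hours at 35° C.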

[2] = test system: Klebsiella pneumoniae SSI #3010; details: SSI #3010
Outline: as §1

[3] = test system: Enterobacter cloacae 848840; details: 848840
Outline: as §1

[4] = test system: Klebsiella pneumoniae 968733; details: 968733
Outline: as §1

[5] = test system: Escherichia coli ATCC 25922; details: ATCC 25922
Outline: as §1

[6] = test system: Acinetobacter baumannii DSM 30008; details: DSM 30008
Outline: as §1

[7] = test system: Pseudomonas aeruginosa ATCC 27853; details: ATCC 27853
Outline: as §1

[8] = test system: Acinetobacter baumannii 872842; details: 872842
Outline: as §1

Structure (SMILES)	MIC (Escherichia coli 926415) [µg/mL]	MIC [2] [µg/mL]	MIC [3] [µg/mL]	MIC [4] [µg/mL]	MIC [5] [µg/mL]	MIC [6] [µg/mL]	MIC [7] [µg/mL]	MIC [8] [µg/mL]	Klebsiella pneumoniae SSI #3010 MIC [2] [µg/mL]	Escherichia coli ATCC 25922 MIC [5] [µg/mL]	Acinetobacter baumannii DSM 30008 MIC [6] [µg/mL]	Pseudomonas aeruginosa ATCC 27853 MIC [7] [µg/mL]	Hemolysis at 200 μg/mL [1] [%]
CC(=O)N[C@H](C(=O)N[C@H]1CSSC[C@@H](C(=O)N[C@@H](CO)C(N)=O)NC(=O)[C@H](C(C)C)NC(=O)[C@H](CCC(=O)O)NC(=O)[C@H](Cc2c[nH]c3ccccc23)NC(=O)[C@H](CCO)NC(=O)[C@@H](CCN)NC(=O)[C@H](CCC(=O)N[C@@H](CCN)C(=O)N[C@H](C(=O)N[C@@H](CN)C(=O)N[C@H]2CCNC(=O)[C@H]([C@@H](C)O)NC(=O)[C@H](CCN)NC(=O)[C@H](CCN)NC(=O)[C@H](CC(C)C)NC(=O)[C@@H](CC(C)C)NC(=O)[C@H](CCN)NC2=O)[C@@H](C)O)NC(=O)[C@H](CCCCN)NC(=O)[C@H](Cc2ccc(O)cc2)NC1=O)C(C)C [Ex. 158] (I: Ac-VCYKE[dDab][hSer]WEVCS-NH2 / II: [Dab]T[Dap][Dab][Dab][dL]L[Dab][Dab]T; disulfide I:2-I:11; amide I:5-II:N; lactam II:4-II:C)	0.5 (≈ 0.201 µM)	0.125 (≈ 0.0503 µM)	0.125 (≈ 0.0503 µM)	1 (≈ 0.403 µM)	0.0625 (≈ 0.0252 µM)	0.0625 (≈ 0.0252 µM)	0.25 (≈ 0.101 µM)	0.25 (≈ 0.101 µM)					<1
CCC[C@@H]1NC(=O)[C@@H](CC(C)C)NC(=O)[C@H](CCN)NC(=O)[C@@H](NC(=O)[C@H](CN)NC(=O)[C@@H](NC(=O)[C@H](CCN)NC(=O)CC[C@@H]2NC(=O)[C@H](CCN)NC(=O)[C@H](Cc3ccc(O)cc3)NC(=O)[C@@H](NC(=O)[C@@H](NC(C)=O)C(C)C)CSSC[C@@H](C(=O)N[C@H](C(N)=O)[C@@H](C)O)NC(=O)[C@H](C(C)(C)C)NC(=O)[C@H](CO)NC(=O)[C@H](Cc3c[nH]c4ccccc34)NC(=O)[C@H](CO)NC(=O)[C@@H](CCN)NC2=O)[C@@H](C)O)CCNC(=O)[C@H]([C@@H](C)O)NC(=O)[C@H](CCN)NC(=O)[C@H](CCN)NC1=O [Ex. 141] (I: Ac-VCY[Dab]E[dDab]SWS[Tle]CT-NH2 / II: [Dab]T[Dap][Dab][Dab][dL][Nva][Dab][Dab]T; disulfide I:2-I:11; amide I:5-II:N; lactam II:4-II:C)	0.03125 (≈ 0.013 µM)	0.03125 (≈ 0.013 µM)	0.0625 (≈ 0.0259 µM)	0.03125 (≈ 0.013 µM)	0.03125 (≈ 0.013 µM)	0.03125 (≈ 0.013 µM)	0.125 (≈ 0.0518 µM)	0.0625 (≈ 0.0259 µM)					2
CC(C)C[C@@H]1NC(=O)[C@@H](CC(C)C)NC(=O)[C@H](CCN)NC(=O)[C@@H](NC(=O)[C@H](CN)NC(=O)[C@@H](NC(=O)[C@H](CCN)NC(=O)CC[C@@H]2NC(=O)CNC(=O)[C@H](CCCN)NC(=O)[C@@H](NC(=O)[C@H](Cc3ccc(O)cc3)NC(=O)[C@@H](NC(=O)[C@@H](O)C(C)C)[C@@H](C)O)CSSC[C@@H](C(=O)N[C@H](C(=O)N[C@@H](C)C(=O)N[C@H](CO)[C@@H](C)O)C(C)(C)C)NC(=O)[C@H](Cc3c[nH]c4ccccc34)NC2=O)[C@@H](C)O)CCNC(=O)[C@H]([C@@H](C)O)NC(=O)[C@H](CCN)NC(=O)[C@H](CCN)NC1=O [Ex. 212] (I: H-[Hiv]TYC[Orn]GEWC[Tle]A[Thr(ol)] / II: [Dab]T[Dap][Dab][Dab][dL]L[Dab][Dab]T; disulfide I:4-I:9; amide I:7-II:N; lactam II:4-II:C)	1 (≈ 0.427 µM)	0.25 (≈ 0.107 µM)	0.5 (≈ 0.214 µM)	2 (≈ 0.854 µM)	0.0625 (≈ 0.0267 µM)	0.125 (≈ 0.0534 µM)	0.25 (≈ 0.107 µM)	0.5 (≈ 0.214 µM)					1
CC(=O)N[C@H](C(=O)N[C@H]1CSSC[C@@H](C(=O)N[C@@H](CO)C(N)=O)NC(=O)[C@H](C(C)C)NC(=O)[C@H](CO)NC(=O)[C@H](Cc2c[nH]c3ccccc23)NC(=O)[C@H](CCC(=O)N[C@@H](CCN)C(=O)N[C@H](C(=O)N[C@@H](CN)C(=O)N[C@H]2CCNC(=O)[C@H]([C@@H](C)O)NC(=O)[C@H](CCN)NC(=O)[C@H](CCN)NC(=O)[C@H](CC(C)C)NC(=O)[C@@H](CC(C)C)NC(=O)[C@H](CCN)NC2=O)[C@@H](C)O)NC(=O)[C@@H](CCN)NC(=O)CNC(=O)[C@H](CCN)NC(=O)[C@H](Cc2ccc(O)cc2)NC1=O)C(C)C [Ex. 360] (I: Ac-VCY[Dab]G[dDab]EWSVCS-NH2 / II: [Dab]T[Dap][Dab][Dab][dL]L[Dab][Dab]T; disulfide I:2-I:11; amide I:7-II:N; lactam II:4-II:C)	0.25 (≈ 0.106 µM)		0.125 (≈ 0.0528 µM)	0.5 (≈ 0.211 µM)				0.125 (≈ 0.0528 µM)	0.0625	0.0625	0.0625	0.125	2
CC(=O)N[C@H](C(=O)N[C@H]1CSSC[C@@H](C(=O)N[C@@H](CO)C(=O)N[C@H](C)C(N)=O)NC(=O)[C@H](C(C)C)NC(=O)[C@H](CO)NC(=O)[C@H](Cc2c[nH]c3ccccc23)NC(=O)[C@H](CO)NC(=O)[C@@H](CCN)NC(=O)[C@H](CCC(=O)N[C@@H](CCN)C(=O)N[C@H](C(=O)N[C@@H](CN)C(=O)N[C@H]2CCNC(=O)[C@H]([C@@H](C)O)NC(=O)[C@H](CCN)NC(=O)[C@H](CCN)NC(=O)[C@H](CC(C)C)NC(=O)[C@@H](CC(C)C)NC(=O)[C@H](CCN)NC2=O)[C@@H](C)O)NC(=O)[C@H](CCN)NC(=O)[C@H](Cc2ccc(O)cc2)NC1=O)C(C)C [Ex. 378] (I: Ac-VCY[Dab]E[dDab]SWSVCS[dA]-NH2 / II: [Dab]T[Dap][Dab][Dab][dL]L[Dab][Dab]T; disulfide I:2-I:11; amide I:5-II:N; lactam II:4-II:C)	0.0625 (≈ 0.0253 µM)		0.0625 (≈ 0.0253 µM)	0.125 (≈ 0.0506 µM)				0.0625 (≈ 0.0253 µM)	0.0625	0.0625	0.03125	0.0625	<1

The next lines start with results.

MIC (Escherichia coli 926415) [µg/mL]	MIC [2] [µg/mL]	MIC [3] [µg/mL]	MIC [4] [µg/mL]	MIC [5] [µg/mL]	MIC [6] [µg/mL]	MIC [7] [µg/mL]	MIC [8] [µg/mL]	Klebsiella pneumoniae SSI #3010 MIC [2] [µg/mL]	Escherichia coli ATCC 25922 MIC [5] [µg/mL]	Acinetobacter baumannii DSM 30008 MIC [6] [µg/mL]	Pseudomonas aeruginosa ATCC 27853 MIC [7] [µg/mL]	Structure (SMILES)	Hemolysis at 200 μg/mL [1] [%]
0.5 (≈ 0.215 µM)	0.125 (≈ 0.0539 µM)	0.125 (≈ 0.0539 µM)	1 (≈ 0.431 µM)	0.0625 (≈ 0.0269 µM)	0.0625 (≈ 0.0269 µM)	0.5 (≈ 0.215 µM)	0.25 (≈ 0.108 µM)					CC(=O)N[C@H](C(=O)N[C@H]1CCCNC(=O)[C@@H](CCO)NC(=O)[C@H](C(C)(C)C)NC(=O)[C@H](CO)NC(=O)[C@H](Cc2c[nH]c3ccccc23)NC(=O)[C@H](CCO)NC(=O)[C@@H](CCN)NC(=O)[C@H](CCC(=O)N[C@@H](CCN)C(=O)N[C@H](C(=O)N[C@@H](CN)C(=O)N[C@H]2CCNC(=O)[C@H]([C@@H](C)O)NC(=O)[C@H](CCN)NC(=O)[C@H](CCN)NC(=O)[C@H](CC(C)C)NC(=O)[C@@H](CC(C)C)NC(=O)[C@H](CCN)NC2=O)[C@@H](C)O)NC(=O)[C@H](CO)NC(=O)[C@H](Cc2ccc(O)cc2)NC1=O)C(C)C [Ex. 22] (I: Ac-V[Orn]YSE[dDab][hSer]WS[Tle][d(hSer)] / II: [Dab]T[Dap][Dab][Dab][dL]L[Dab][Dab]T; lactam I:2-I:C, II:4-II:C; amide I:5-II:N)	<1
0.25 (≈ 0.103 µM)		0.125 (≈ 0.0517 µM)	0.5 (≈ 0.207 µM)				0.125 (≈ 0.0517 µM)	0.0625	0.0625	0.0625	0.125	CC(=O)N[C@H](C(=O)N[C@H]1CCNC(=O)CC[C@@H](C(=O)N[C@@H](CO)C(N)=O)NC(=O)[C@H](CC(C)C)NC(=O)[C@H](CO)NC(=O)[C@H](Cc2c[nH]c3ccccc23)NC(=O)[C@H](CO)NC(=O)[C@@H](CCN)NC(=O)[C@H](CCC(=O)N[C@@H](CCN)C(=O)N[C@H](C(=O)N[C@@H](CN)C(=O)N[C@H]2CCNC(=O)[C@H]([C@@H](C)O)NC(=O)[C@H](CCN)NC(=O)[C@H](CCN)NC(=O)[C@H](CC(C)C)NC(=O)[C@@H](CC(C)C)NC(=O)[C@H](CCN)NC2=O)[C@@H](C)O)NC(=O)[C@H](CCN)NC(=O)[C@H](Cc2ccc(O)cc2)NC1=O)C(C)C [Ex. 327] (I: Ac-V[Dab]Y[Dab]E[dDab]SWSLES-NH2 / II: [Dab]T[Dap][Dab][Dab][dL]L[Dab][Dab]T; lactam I:2-I:11, II:4-II:C; amide I:5-II:N)	<1
